The values below come from US20220175955A1, “PEPTIDE DISPLAY TO ANTIGEN PRESENTING CELLS USING LIPID VEHICLE” (Torque Therapeutics Inc., priority 2018, published 2022).

The test system of this test is CD11c+ BMDCs. Description: Antigen presentation (MHC I:SIINFEKL) on antigen-pulsed BMDCs in vitro, flow cytometry. It is filed as cell-based, mouse. Conditions: 1 μM epitope; later time points (48 h to 96 h); FIG. 1. The protocol: Bone marrow derived dendritic cells (BMDCs) were differentiated in vitro before antigen pulsing. Bone marrow cells were isolated from tibia and femur from C57bl/6 JrJ mice obtained from Janvier SAS. After sacrificing the mice by cervical dislocation, bones were isolated and kept in tissue storage solution (MACS Miltenyi). After a 2 min sterilization in 70% ethanol, bones were cut at each end with a scalpel end flushed with medium by using a 29 g insulin syringe. Following isolation, bone marrow cells were cultured in complete RPMI 1640 medium supplemented with 20 ng/ml mouse recombinant GM-CSF. On day 3, cells were supplemented with fresh medium containing GM-CSF. On day 6, immature BMDCs were harvested, re-plated and incubated with 1 μM liposomal (MK062 or MK062 TMX) or soluble SIINFEKL epitope. BMDCs were harvested after 24 or 48 hours for flow cytometry analysis. […] After blocking for 5 min on ice, cells were stained with antibodies against the dendritic cell marker CD11c and assessed for antigen presentation by an antibody recognizing SIINFEKL presented on MHC I molecules (H-2kb). […]
[…] After blocking for 5 min on ice, cells were stained with antibodies against the dendritic cell marker CD11c and assessed for antigen presentation by an antibody recognizing SIINFEKL presented on MHC I molecules (H-2kb). […]

Regarding SIINFEKL (Synthetic antigen), the “Antigen presentation (MFI of MHC:SIINFEKL in CD11c+ BMDCs)” value is given as “decreased markedly”.
